Consider one compound from patent publication US8273780B2, “Polycyclic antagonists of lysophosphatidic acid receptors” (Amira Pharmaceuticals, Inc., priority 2009, dated 2012).

Some results are limits rather than exact numbers.

For one assay, the target named is T1, Human LPA3 (Homo sapiens, UniProt Q9UBY5).
T1 construct: The full-length cDNA fragment for human LPA3 was obtained by PCR from the vector; expressed in transfected cells; cDNA from the Missouri S&T cDNA Resource Center
T1 sequence (Q9UBY5 1-353): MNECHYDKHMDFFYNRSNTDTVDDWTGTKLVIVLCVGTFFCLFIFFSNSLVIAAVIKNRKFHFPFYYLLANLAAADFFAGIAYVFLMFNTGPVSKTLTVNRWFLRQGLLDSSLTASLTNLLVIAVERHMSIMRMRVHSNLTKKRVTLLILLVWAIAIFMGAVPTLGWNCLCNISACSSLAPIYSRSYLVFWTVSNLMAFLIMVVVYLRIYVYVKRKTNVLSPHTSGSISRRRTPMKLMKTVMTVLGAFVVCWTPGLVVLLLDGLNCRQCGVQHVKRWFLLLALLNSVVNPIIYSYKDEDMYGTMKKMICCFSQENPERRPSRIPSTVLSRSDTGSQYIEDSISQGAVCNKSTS
Briefly: LPA3 calcium flux assay. Type of assay: cell-based. As to conditions: CHO cells expressing human LPA3, 10 nM LPA; read-out: HLPA3 Ca Flux IC50. In outline: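 Stable hLPA3-CHO cells, serum-starved overnight, loaded with Calcium 4 dye in HBSS/20 mM HEPES/0.3% fatty-acid-free HSA for 1 h at 37° C. Compounds added for 30 min at room temperature, then cells stimulated with 10 nM LPA. Intracellular Ca^2+ measured; IC50 from titration curves.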
Background: A change in cytosolic calcium serves as a functional read-out for many receptors and channels.

A further assay has as its system C57BL/6 mice. Briefly: Mouse unilateral ureteral obstruction kidney fibrosis model. Type of assay: in vivo. As to conditions: compared to untreated group. Here is the method:
Female C57BL/6 mice (Harlan, 20-25 g) housed 4/cage will be given free access to food and water and allowed to acclimate for at least 7 days prior to test initiation. After the habituation phase, mice undergo unilateral ureteral obstruction (UUO) surgery or sham to left kidney. Briefly, a longitudinal, upper left incision is performed to expose the left kidney. The renal artery is located and 6/0 silk thread is passed between the artery and the ureter. The thread is looped around the ureter and knotted 3 times insuring full ligation of ureter. The kidney is returned to abdomen, the abdominal muscle is sutured and the skin is stapled closed. Mice are returned to their cages and monitored daily for the duration of the experiment. Test compound or vehicle is delivered po, ip or sc daily. The route and frequency of dosing is based on previously determined pharmacokinetic properties. All animals are sacrificed using inhaled isoflurane 4, 8 or 14 days after UUO surgery. Following sacrifice blood is drawn via cardiac puncture, the kidneys are harvested and one half of the kidney is frozen at −80° C. and the other half is fixed in 10% neutral buffered formalin for histological assessment of kidney fibrosis using light microscopy (10× magnification). Kidney tissue homogenates are analyzed for collagen levels using Sircol (Biocolor Ltd, UK). Fixed kidney tissue is also stained using hematoxylin and eosin (H&E) and trichrome and kidney fibrosis is determined by quantitative, computer-assisted densitometry of collagen in […] tissue sections using light microscopy and collagen content in kidney lysate. Plasma and kidney tissue lysates are also analyzed for concentrations of inflammatory, pro-fibrotic and tissue injury biomarkers including transforming growth factor β1, hyaluronic acid, tissue inhibitor of metalloproteinase-1, and plasminogen activator inhibitor-1, using commercially available ELISA. The resulting data are plotted using Graphpad prism and statistical differences between groups determined.

The target in another assay is T2, Human LPA1 (Homo sapiens, UniProt Q92633).
T2 construct: the full-length cDNA for human LPA1 was obtained by PCR of the reverse transcription reaction; expressed in transfected cells
T2 sequence (Q92633 whole entry): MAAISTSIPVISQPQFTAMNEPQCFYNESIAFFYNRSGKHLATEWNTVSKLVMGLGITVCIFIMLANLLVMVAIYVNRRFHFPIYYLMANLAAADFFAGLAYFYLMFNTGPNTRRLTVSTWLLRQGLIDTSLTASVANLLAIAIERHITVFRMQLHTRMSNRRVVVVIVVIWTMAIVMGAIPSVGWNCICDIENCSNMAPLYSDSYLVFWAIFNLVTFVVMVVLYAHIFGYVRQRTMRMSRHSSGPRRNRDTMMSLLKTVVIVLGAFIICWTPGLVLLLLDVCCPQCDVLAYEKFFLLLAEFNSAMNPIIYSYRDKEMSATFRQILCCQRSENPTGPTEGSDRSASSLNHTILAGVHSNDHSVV
Put plainly: LPA1 calcium flux assay. Type of assay: cell-based. As to conditions: CHO cells expressing human LPA1, 10 nM LPA; read-out: HLPA1 Ca Flux IC50. The essentials: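 CHO cells stably expressing cloned human LPA1, serum-starved overnight, loaded 1 h at 37 °C with Calcium 4 dye in HBSS/20 mM Hepes/0.3% fatty-acid-free HSA. Compounds preincubated 30 min at room temp, then stimulated with 10 nM LPA; intracellular Ca2+ measured and IC50 derived from titration curves.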

A word on the IC50: it is the concentration at which inhibition is half-maximal.

As for `Cc1noc(-c2ccc(-c3ccc(C4(C(=O)O)CC4)cc3)cc2)c1NC(=O)O[C@H](C)c1ccccc1` [Compound 1, 1-{4′-[3-Methyl-4-((R)-1-phenyl-ethoxycarbonylamino)-isoxazol-5-yl]-biphenyl-4-yl}-cyclopropanecarboxylic acid], the IC50 at Human LPA3 lay within 1 to 10 µM. Also, in the assay with C57BL/6 mice, the hyaluronic acid result is “reduced”, the “plasminogen activator inhibitor-1” value is “reduced”, the “tissue inhibitor of metalloproteinase-1” value is “reduced” and the total kidney collogen entry is reported as “reduced”. Besides, the “transforming growth factor β1” value with C57BL/6 mice is reported as “reduced”. Further, the “collagen Type 1” value with C57BL/6 mice (kidney) was “reduced”. On Human LPA1, the IC50 was < 300 nM.
